Measured values taken from PubChem BioAssay AID248 (DTP/NCI, 2004).
“And” between values parts separate entries of the source, which are not always exact repeats. Equal values may be shown once. Toxic doses and inconclusive results are not listed. Cut-off read from the data, not from the text of the source: active = T/C of 150% or more; inactive = T/C below 125%.

Test system: L1210 leukemia ip in BDF1 mice, survival T/C
Test: NCI In Vivo Anticancer Drug Screen. Data for tumor model L1210 Leukemia (intraperitoneal) in B6D2F1 (BDF1) mice
Conditions: higher = longer survival
Method in brief: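 Survival endpoint. Drug-treated group vs vehicle group, expressed as T divided by C. Tumor passaged by transplantation.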

[1] = endpoint: mean survival time, dose: 50.0 mg/kg/injection, schedule: Q01DX009 (ip), vehicle: saline
[2] = endpoint: mean survival time, dose: 100.0 mg/kg/injection, schedule: Q01DX001 (ip), vehicle: saline
[3] = endpoint: mean survival time, dose: 200.0 mg/kg/injection, schedule: Q01DX001 (ip), vehicle: saline
[4] = endpoint: mean survival time, dose: 100.0 mg/kg/injection, schedule: Q04DX003 (ip), vehicle: saline
[5] = endpoint: mean survival time, dose: 200.0 mg/kg/injection, schedule: Q04DX003 (ip), vehicle: saline
[6] = endpoint: mean survival time, dose: 400.0 mg/kg/injection, schedule: Q01DX001 (ip), vehicle: saline
[7] = endpoint: mean survival time, dose: 100.0 mg/kg/injection, schedule: Q04DX002 (ip), vehicle: Klucel (hydroxypropylcellulose) (HPC)
[8] = endpoint: mean survival time, dose: 200.0 mg/kg/injection, schedule: Q04DX002 (ip), vehicle: Klucel (hydroxypropylcellulose) (HPC)
[9] = endpoint: mean survival time, dose: 100.0 mg/kg/injection, schedule: Q04DX003 (ip), vehicle: Klucel (hydroxypropylcellulose) (HPC)
[10] = endpoint: mean survival time, dose: 200.0 mg/kg/injection, schedule: Q04DX003 (ip), vehicle: Klucel (hydroxypropylcellulose) (HPC)
[11] = endpoint: mean survival time, dose: 400.0 mg/kg/injection, schedule: Q04DX003 (ip), vehicle: Klucel (hydroxypropylcellulose) (HPC)

Measured: T/C

Cc1ccc2c(c1)P(=O)(O)c1cc(Cl)ccc1O2
inactive: [1] 98 % of control | endpoint: mean survival time, dose: 100.0 mg/kg/injection, schedule: Q01DX009 (ip), vehicle: saline 100 % of control | endpoint: mean survival time, dose: 200.0 mg/kg/injection, schedule: Q01DX009 (ip), vehicle: saline 102 % of control | endpoint: mean survival time, dose: 400.0 mg/kg/injection, schedule: Q01DX009 (ip), vehicle: saline 98 % of control | endpoint: median survival time, dose: 64.8 mg/kg/injection, schedule: Q01DX009 (ip), vehicle: water 109 % of control | endpoint: median survival time, dose: 108.0 mg/kg/injection, schedule: Q01DX009 (ip), vehicle: water 107 % of control | endpoint: median survival time, dose: 130.0 mg/kg/injection, schedule: Q04DX003 (ip), vehicle: water 103 % of control | endpoint: median survival time, dose: 180.0 mg/kg/injection, schedule: Q01DX009 (ip), vehicle: water 109 % of control | endpoint: median survival time, dose: 216.0 mg/kg/injection, schedule: Q04DX003 (ip), vehicle: water 102 % of control | endpoint: median survival time, dose: 300.0 mg/kg/injection, schedule: Q01DX009 (ip), vehicle: water 112 % of control | endpoint: median survival time, dose: 360.0 mg/kg/injection, schedule: Q04DX003 (ip), vehicle: water 103 % of control

O=CN/N=C/c1ccc(Cl)cc1Cl
inactive: endpoint: mean survival time, dose: 75.0 mg/kg/injection, schedule: Q01DX001 (ip), vehicle: saline 95 % of control | endpoint: mean survival time, dose: 150.0 mg/kg/injection, schedule: Q01DX001 (ip), vehicle: saline 104 % of control

CN(Cc1ccccc1)c1ccc(SC#N)cc1
inactive: [2] 98 % of control | [3] 104 % of control

O=C1CC(N2C(=O)C3CCCCC3C2=O)C(=O)N1 (configuration not stated)
inactive: [4] 97 % of control | [5] 101 % of control | endpoint: mean survival time, dose: 400.0 mg/kg/injection, schedule: Q04DX003 (ip), vehicle: saline 97 % of control

Nc1nc2ncnc(N)c2nc1-c1ccc(N(CCCl)CCCl)cc1
inactive: [2] 98 % of control | [3] 95 % of control | [6] 102 % of control

COc1ccc(-n2cccc2C(N)=O)cc1OC
inactive: [7] 103 % of control | [8] 100 % of control | endpoint: mean survival time, dose: 400.0 mg/kg/injection, schedule: Q04DX002 (ip), vehicle: Klucel (hydroxypropylcellulose) (HPC) 90 % of control

CCOC(=O)C(C)(NC(C)=O)C(C)=O (configuration not stated)
inactive: endpoint: mean survival time, dose: 50.0 mg/kg/injection, schedule: Q01DX001 (ip), vehicle: carboxymethylcellulose (CMC) 106 % of control | endpoint: mean survival time, dose: 100.0 mg/kg/injection, schedule: Q01DX001 (ip), vehicle: carboxymethylcellulose (CMC) 114 % of control | endpoint: mean survival time, dose: 200.0 mg/kg/injection, schedule: Q01DX001 (ip), vehicle: carboxymethylcellulose (CMC) 101 % of control | endpoint: mean survival time, dose: 400.0 mg/kg/injection, schedule: Q01DX001 (ip), vehicle: carboxymethylcellulose (CMC) 92 % of control

C=CCC(=O)O
inactive: endpoint: mean survival time, dose: 83.0 mg/kg/injection, schedule: Q01DX Z (ip), vehicle: saline 96 % of control | endpoint: mean survival time, dose: 125.0 mg/kg/injection, schedule: Q01DX Z (ip), vehicle: saline 90 % of control

OCCC1(CCO)CCCCC1
inactive: endpoint: mean survival time, dose: 25.0 mg/kg/injection, schedule: Q01DX009 (ip), vehicle: saline with Tween-80 99 % of control | endpoint: mean survival time, dose: 25.0 mg/kg/injection, schedule: Q04DX003 (ip), vehicle: saline with Tween-80 114 % of control | endpoint: mean survival time, dose: 50.0 mg/kg/injection, schedule: Q01DX009 (ip), vehicle: saline with Tween-80 95 % of control | endpoint: mean survival time, dose: 50.0 mg/kg/injection, schedule: Q04DX003 (ip), vehicle: saline with Tween-80 104 % of control | endpoint: mean survival time, dose: 100.0 mg/kg/injection, schedule: Q01DX009 (ip), vehicle: saline with Tween-80 95 % of control and 108 % of control

COC(=O)c1cc(OC)cc(OC)c1
inactive: endpoint: mean survival time, dose: 100.0 mg/kg/injection, schedule: Q04DX003 (ip), vehicle: other 88 % of control | endpoint: mean survival time, dose: 200.0 mg/kg/injection, schedule: Q04DX003 (ip), vehicle: other 92 % of control | endpoint: mean survival time, dose: 400.0 mg/kg/injection, schedule: Q04DX003 (ip), vehicle: other 97 % of control

COc1ccc(Cc2ccc3c(C)cc(Cl)nc3c2)cc1
inactive: [2] 98 % of control | [3] 103 % of control | [6] 108 % of control

CCCCCCCCCCCCCCCCCCCC[As](=O)(O)CCCCCCCCCCCCCCCCCCCC
inactive: endpoint: mean survival time, dose: 50.0 mg/kg/injection, schedule: Q01DX001 (ip), vehicle: saline 97 % of control | [2] 101 % of control | [3] 95 % of control | [6] 103 % of control

Clc1ccccc1C=Nc1ccc2c(c1)Cc1ccccc1-2
inactive: endpoint: mean survival time, dose: 100.0 mg/kg/injection, schedule: Q01DX001 (ip), vehicle: Klucel (hydroxypropylcellulose) (HPC) 87 % of control | [9] 101 % of control | endpoint: mean survival time, dose: 200.0 mg/kg/injection, schedule: Q01DX001 (ip), vehicle: Klucel (hydroxypropylcellulose) (HPC) 93 % of control | [10] 94 % of control | endpoint: mean survival time, dose: 400.0 mg/kg/injection, schedule: Q01DX001 (ip), vehicle: Klucel (hydroxypropylcellulose) (HPC) 87 % of control | [11] 101 % of control

Cc1c(Cl)cccc1NS(=O)(=O)c1ccc(Cl)cc1
inactive: endpoint: mean survival time, dose: 100.0 mg/kg/injection, schedule: Q01DX009 (ip), vehicle: Klucel (hydroxypropylcellulose) (HPC) 117 % of control | [9] 102 % of control | endpoint: mean survival time, dose: 200.0 mg/kg/injection, schedule: Q01DX009 (ip), vehicle: Klucel (hydroxypropylcellulose) (HPC) 111 % of control | [10] 119 % of control | endpoint: mean survival time, dose: 400.0 mg/kg/injection, schedule: Q01DX009 (ip), vehicle: Klucel (hydroxypropylcellulose) (HPC) 101 % of control | [11] 110 % of control

CCOC(=O)/C=C/C(=O)N(C)c1ccccc1
inactive: endpoint: mean survival time, dose: 100.0 mg/kg/injection, schedule: Q01DX001 (ip), vehicle: other 100 % of control | endpoint: mean survival time, dose: 200.0 mg/kg/injection, schedule: Q01DX001 (ip), vehicle: other 100 % of control | endpoint: mean survival time, dose: 400.0 mg/kg/injection, schedule: Q01DX001 (ip), vehicle: other 108 % of control

CCOC(=O)/C(C)=N/O
inactive: endpoint: mean survival time, dose: 100.0 mg/kg/injection, schedule: Q04DX002 (ip), vehicle: saline with Tween-80 96 % of control | endpoint: mean survival time, dose: 200.0 mg/kg/injection, schedule: Q04DX002 (ip), vehicle: saline with Tween-80 116 % of control | endpoint: mean survival time, dose: 400.0 mg/kg/injection, schedule: Q04DX002 (ip), vehicle: saline with Tween-80 104 % of control

NC(=O)C(NC(=O)c1ccccc1)SCc1ccccc1 (configuration not stated)
inactive: endpoint: mean survival time, dose: 25.0 mg/kg/injection, schedule: Q04DX002 (ip), vehicle: Klucel (hydroxypropylcellulose) (HPC) 98 % of control | endpoint: mean survival time, dose: 50.0 mg/kg/injection, schedule: Q04DX002 (ip), vehicle: Klucel (hydroxypropylcellulose) (HPC) 95 % of control | [7] 95 % of control

N=C(N)SC1c2ccccc2-c2cc([N+](=O)[O-])ccc21 (configuration not stated)
inactive: endpoint: mean survival time, dose: 100.0 mg/kg/injection, schedule: Q01DX005 (ip), vehicle: Klucel (hydroxypropylcellulose) (HPC) 105 % of control | [7] 101 % of control | endpoint: mean survival time, dose: 200.0 mg/kg/injection, schedule: Q01DX005 (ip), vehicle: Klucel (hydroxypropylcellulose) (HPC) 98 % of control | [8] 114 % of control

CC(=O)NC1CCCC(C)N1 (configuration not stated)
inactive: endpoint: mean survival time, dose: 50.0 mg/kg/injection, schedule: Q04DX003 (ip), vehicle: saline 98 % of control | [2] 110 % of control | [4] 104 % of control | [3] 100 % of control | [5] 96 % of control

CCCCCc1ccc(C)cc1OC(=O)CCl
inactive: endpoint: mean survival time, dose: 28.0 mg/kg/injection, schedule: Q01DX Z (ip), vehicle: methylcellulose (MC) 97 % of control | endpoint: mean survival time, dose: 42.0 mg/kg/injection, schedule: Q01DX Z (ip), vehicle: methylcellulose (MC) 97 % of control | endpoint: mean survival time, dose: 62.0 mg/kg/injection, schedule: Q01DX Z (ip), vehicle: methylcellulose (MC) 92 % of control

O=C1c2ccc([N+](=O)[O-])cc2-n2cccc21
inactive: [9] 95 % of control | [10] 104 % of control | [11] 98 % of control

S=C(c1ccccc1)N(c1ccccc1)C1CCCCC1
inactive: endpoint: mean survival time, dose: 100.0 mg/kg/injection, schedule: Q04DX003 (ip), vehicle: gum acacia 91 % of control | endpoint: mean survival time, dose: 200.0 mg/kg/injection, schedule: Q04DX003 (ip), vehicle: gum acacia 88 % of control | endpoint: mean survival time, dose: 400.0 mg/kg/injection, schedule: Q04DX003 (ip), vehicle: gum acacia 88 % of control

CC(=C/c1ccccc1)/C=N/N=C(N)N
inactive: endpoint: mean survival time, dose: 3.8 mg/kg/injection, schedule: Q01DX Z (ip), vehicle: saline 97 % of control | endpoint: mean survival time, dose: 7.5 mg/kg/injection, schedule: Q01DX Z (ip), vehicle: saline 94 % of control | endpoint: mean survival time, dose: 15.0 mg/kg/injection, schedule: Q01DX Z (ip), vehicle: saline 90 % of control

O=c1cc2oc3c(O)c(O)ccc3c3c4ccccc4c(=O)c(c1)c23
inactive: endpoint: mean survival time, dose: 12.5 mg/kg/injection, schedule: Q01DX009 (ip), vehicle: saline 92 % of control | endpoint: mean survival time, dose: 25.0 mg/kg/injection, schedule: Q01DX009 (ip), vehicle: saline 96 % of control | [1] 103 % of control and 91 % of control | [4] 96 % of control | [5] 102 % of control
